According to US20040028746A1, “Crystalline drug particles prepared using a controlled precipitation (recrystallization) process” (priority 2002, published 2004):

Tests used:
[1] = Average crystalline domain size and crystallinity by X-ray diffraction; assay type: physicochemical; conditions: comparative particles as received or wet-milled (Table B)
Description: As used herein the term “essentially crystalline” is defined to mean that the particles are at least 90% crystalline as measured using X-ray diffraction techniques.
0.3 g of the drug was dissolved in 6 ml of the organic solvent, which may contain 0.3 g of a stabilizer. The organic solution was injected at 2 degrees C. with vigorous stirring into 30.0 g of the aqueous phase, which may contain a second stabilizer. The solvent was stripped from the resulting slurry, and the slurry freeze dried to yield a powder. […] Average size of the crystalline domains was determined using X-ray diffraction as known by those skilled in the art of particle size measurement, using Jade XRD pattern processing software (v.6).
(§1) Dissolution was monitored for 5 minutes by the loss in turbidity.

[2] = Dissolution by turbidity method (loss in turbidity); assay type: physicochemical; conditions: loss in turbidity monitored for 5 minutes
Description: as §1, §1

| Crystalline Domain [1] [Å] | Percent of Dissolution after 5 min. ([2]; Carbamazepine sample: deionized water) [%] | Compound | Percent of Dissolution after 5 min. ([2]; Danazol samples: deionized water plus sodium dodecyl sulfate) [%] |
| --- | --- | --- | --- |
| 475 | 100 | NC(=O)N1c2ccccc2C=Cc2ccccc21 [compound 23, Carbamazepine] | – |
| 646 | – | COc1ccc2cc([C@H](C)C(=O)O)ccc2c1 [compound 22, Naproxen] | – |

| Compound | Crystalline Domain [1] [Å] | Percent of Dissolution after 5 min. ([2]; Carbamazepine sample: deionized water) [%] | Percent of Dissolution after 5 min. ([2]; Danazol samples: deionized water plus sodium dodecyl sulfate) [%] |
| --- | --- | --- | --- |
| C#C[C@]1(O)CC[C@H]2[C@@H]3CCC4=Cc5oncc5C[C@]4(C)[C@H]3CC[C@@]21C [compound 24, Danazol/USP 24] | 404 | – | 91 |
